Experimental data reported in US11020457B2, “Compositions and methods for protecting the kidney from ischemia reperfusion injury” (University of Virginia Patent Foundation, priority 2013, dated 2021).
“Also recorded” adds a separate entry of the source.

Columns and labels:
[1] = system: animals models of AKI; conditions: cited from earlier work; for renal IRI severity: literature (37-39; 7, 37)
[2] = system: hepcidin; conditions: within 2-5 days after the start of the treatment; cited from earlier work
[3] = system: hepcidin; conditions: hepcidin inducers; cited from earlier work
[4] = system: rat model of AI; conditions: AI induced with PG-APS; cited from earlier work
[5] = system: splenocytes from WT mice; assay: Iron stimulation of splenocytes, IL-6 secretion by ELISA; type: cell-based; conditions: iron treatment for 4 hours, vs untreated and hepcidin-treated cells, p<0.005; FIG. 10c
Description: Splenocytes were harvested from 10-week-old B6 male mice. After excising the spleen, red blood cells were lysed and the remaining splenocytes were seeded at 1×10^6 cells/mL in 24-well tissue culture plates and cultured under 5% CO2 at 37° C. for 24 hours. The culture medium consisted of RPMI 1640 medium supplemented with 10% fetal calf serum (FCS), 100 U/mL penicillin, 100 μg/mL streptomycin, 1% non-essential amino acids (Gibco/Life Technologies, Foster, Calif., USA), 2 mM L-glutamine (Sigma), and 50/μM 2-mercaptoethanol. After resting for 24 hours, the cells were treated with 10 μM […] (FAC), 1 μg/mL hepcidin or saline for 4 hours. The cell culture supernatants were harvested and quantified for the levels of IL-6 by ELISA (eBioscience).

In the case of `CC(=O)N(O)CCCCCNC(=O)CCC(=O)N(O)CCCCCNC(=O)CCC(=O)N(O)CCCCCN` [desferrioxamine], the “protection in animal models of AKI” value ([1]; iron chelation) is given as “induces protection in diverse animals models of AKI” and the “renal IRI severity” value [1] is given as “attenuate IRI; also recorded: provide protection and significantly improve its severity and outcomes”.

For low-molecular-weight heparin, the “decrease of serum hepcidin concentrations” value [2] is listed as about 80%.

For superoxide dismutase, the “renal IRI severity” value [1] is given as “attenuate IRI”.

For `CC(C)Oc1ccc2c(=O)c(-c3ccccc3)coc2c1` [ipriflavone], the “active concentration, fold below that required for genistein's effect” value [3] is listed as 10 fold.

In the case of `c1ccc2c(-c3cnn4cc(-c5ccc(N6CCNCC6)cc5)cnc34)ccnc2c1` [LDN-193189], the “anemia of inflammation (AI)” value [4] is listed as “effectively reversed anemia”.

In the case of ferrous sulfate [reference compound], the “IL-6 secretion into supernatants” value [5] is reported as “significantly increased splenocytes IL-6 secretion”.

In the case of `O=C(CCCCCCC(=O)Nc1ccccc1)NO` [vorinostat], the “active concentration, fold below that required for genistein's effect” value [3] is given as 10 fold.
